In brackets after ≈: the same amount, converted by molar mass.
How the values were obtained:
[1] = tested on: Bel-7402; assay: Compound was tested for its cytotoxic activity against human Bel-7402 Hepatocellular carcinoma cell line; assay type: functional; conditions: read-out: ID50 (the source's name)
[2] = tested on: HL-60; assay: Compound was tested for its cytotoxic activity against human HL-60 promyelocytic leukemia cell line; assay type: functional; conditions: read-out: ID50 (the source's name)

Structure (SMILES)	IC50 [1]	IC50 [2]
C=C1C(=O)O[C@@H]2CC(C)=C([C@@H](C)CCCOC(C)=O)[C@H](O)[C@H]12	15.6 µg/mL (≈ 50.6 µM)	18.4 µg/mL (≈ 59.7 µM)
C=C1C(=O)O[C@@H]2CC(C)=C([C@@H](C)CCCOC(C)=O)[C@H](OC(=O)/C(Cc3ccccc3)=N/OCCCC)[C@H]12	7.2 µg/mL (≈ 13.7 µM)	4.3 µg/mL (≈ 8.18 µM)

Reference: ChEMBL document CHEMBL1137950, “Studies on 1-O-acetylbritannilactone and its derivative, (2-O-butyloxime-3-phenyl)-propionyl-1-O-acetylbritannilactone ester” (2004)
